Experiments:
Assay in all cases: biochemical
Design in all cases: KINOMEscan active-site-directed competition binding panel, 468 kinases, percent of DMSO control at 1 uM
Settings in all cases: KINOMEscan binding, percent of DMSO control; read-out: Ctrl%
DMPK = DMPK (Homo sapiens, UniProt Q09013)
[1] = target: T1, RPS6KA4(Kin.Dom.1-N-terminal) (Homo sapiens, UniProt O75676)
T1 construct: Kin.Dom.1-N-terminal

BLK = BLK (Homo sapiens, UniProt P51451)
IKK-beta = target: T2, IKK-beta (Homo sapiens, UniProt O14920)
T2 construct: gene IKBKB

AURKA = AURKA (Homo sapiens, UniProt O14965)
p38-beta = target: T3, p38-beta (Homo sapiens, UniProt Q15759)
T3 construct: gene MAPK11

MEK2 = target: T4, MEK2 (Homo sapiens, UniProt P36507)
T4 construct: gene MAP2K2

ACVR2A = ACVR2A (Homo sapiens, UniProt P27037)
ACVR1 = ACVR1 (Homo sapiens, UniProt Q04771)
MARK3 = MARK3 (Homo sapiens, UniProt P27448)
PIK3CA(C420R) = PIK3CA(C420R) (Homo sapiens, UniProt P42336, C420R)
CDK2 = CDK2 (Homo sapiens, UniProt P24941)
MAP4K3 = MAP4K3 (Homo sapiens, UniProt Q8IVH8)
PRKCI = PRKCI (Homo sapiens, UniProt P41743)
EGFR(L858R) = EGFR(L858R) (Homo sapiens, UniProt P00533, L858R)
PIK3CB = PIK3CB (Homo sapiens, UniProt P42338)
LRRK2(G2019S) = LRRK2(G2019S) (Homo sapiens, UniProt Q5S007, G2019S)
PYK2 = target: T5, PYK2 (Homo sapiens, UniProt Q14289)
T5 construct: gene PTK2B

JNK2 = target: T6, JNK2 (Homo sapiens, UniProt P45984)
T6 construct: gene MAPK9

KIT(L576P) = KIT(L576P) (Homo sapiens, UniProt P10721, L576P)
DCAMKL1 = target: T7, DCAMKL1 (Homo sapiens, UniProt O15075)
T7 construct: gene DCLK1

EGFR(S752-I759del) = EGFR(S752-I759del) (Homo sapiens, UniProt P00533, DEL752-759)
LOK = target: T8, LOK (Homo sapiens, UniProt O94804)
T8 construct: gene STK10

FGFR3 = FGFR3 (Homo sapiens, UniProt P22607)

T5 sequence (Q14289 whole entry): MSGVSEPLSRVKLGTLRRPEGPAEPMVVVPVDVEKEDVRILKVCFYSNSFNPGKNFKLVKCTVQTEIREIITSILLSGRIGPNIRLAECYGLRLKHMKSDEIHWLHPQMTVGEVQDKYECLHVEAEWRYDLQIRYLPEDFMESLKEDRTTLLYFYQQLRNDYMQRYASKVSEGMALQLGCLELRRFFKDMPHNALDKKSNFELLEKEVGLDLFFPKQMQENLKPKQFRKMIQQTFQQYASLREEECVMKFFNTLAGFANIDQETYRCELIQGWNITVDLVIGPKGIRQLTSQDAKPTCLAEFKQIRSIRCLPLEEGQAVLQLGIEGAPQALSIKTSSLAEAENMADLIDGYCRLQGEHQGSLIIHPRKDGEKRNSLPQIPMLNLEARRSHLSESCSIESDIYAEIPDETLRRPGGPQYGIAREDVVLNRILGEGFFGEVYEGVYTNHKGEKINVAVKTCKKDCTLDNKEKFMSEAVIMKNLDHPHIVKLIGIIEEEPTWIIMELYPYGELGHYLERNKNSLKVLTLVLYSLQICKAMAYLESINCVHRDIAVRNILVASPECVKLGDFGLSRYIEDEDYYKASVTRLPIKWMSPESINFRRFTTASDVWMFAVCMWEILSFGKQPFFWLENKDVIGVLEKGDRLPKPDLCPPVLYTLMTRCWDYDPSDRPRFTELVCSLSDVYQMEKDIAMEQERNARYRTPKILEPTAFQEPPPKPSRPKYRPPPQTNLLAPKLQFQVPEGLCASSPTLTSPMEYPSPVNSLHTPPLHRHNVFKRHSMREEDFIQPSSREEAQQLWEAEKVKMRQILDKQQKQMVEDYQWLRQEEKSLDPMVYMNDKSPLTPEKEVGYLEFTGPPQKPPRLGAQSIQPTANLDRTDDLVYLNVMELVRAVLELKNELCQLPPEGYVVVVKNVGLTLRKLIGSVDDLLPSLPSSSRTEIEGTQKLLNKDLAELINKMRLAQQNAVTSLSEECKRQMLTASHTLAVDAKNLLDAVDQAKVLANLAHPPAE
Chain of MARK3 (P27448 whole entry): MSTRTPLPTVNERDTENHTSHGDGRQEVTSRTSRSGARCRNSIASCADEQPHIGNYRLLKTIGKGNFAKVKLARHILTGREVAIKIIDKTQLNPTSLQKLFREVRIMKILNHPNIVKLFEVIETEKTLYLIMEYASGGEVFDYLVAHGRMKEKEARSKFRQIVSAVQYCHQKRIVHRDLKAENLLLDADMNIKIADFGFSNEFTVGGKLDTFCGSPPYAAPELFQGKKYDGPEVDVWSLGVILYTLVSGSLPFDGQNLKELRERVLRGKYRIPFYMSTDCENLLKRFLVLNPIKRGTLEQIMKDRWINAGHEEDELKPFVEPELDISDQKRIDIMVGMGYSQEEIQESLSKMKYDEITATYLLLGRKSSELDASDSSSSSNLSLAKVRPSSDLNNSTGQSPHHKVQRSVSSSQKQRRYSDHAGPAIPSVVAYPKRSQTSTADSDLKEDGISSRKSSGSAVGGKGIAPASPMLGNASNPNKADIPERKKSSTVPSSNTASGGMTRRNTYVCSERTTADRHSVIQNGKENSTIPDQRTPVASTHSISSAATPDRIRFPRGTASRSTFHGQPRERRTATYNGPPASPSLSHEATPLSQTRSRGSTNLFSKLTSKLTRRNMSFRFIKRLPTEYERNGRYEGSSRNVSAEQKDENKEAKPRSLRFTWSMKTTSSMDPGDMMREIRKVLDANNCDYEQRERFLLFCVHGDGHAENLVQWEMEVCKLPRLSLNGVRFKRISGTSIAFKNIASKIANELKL
Chain of ACVR1 (Q04771 whole entry): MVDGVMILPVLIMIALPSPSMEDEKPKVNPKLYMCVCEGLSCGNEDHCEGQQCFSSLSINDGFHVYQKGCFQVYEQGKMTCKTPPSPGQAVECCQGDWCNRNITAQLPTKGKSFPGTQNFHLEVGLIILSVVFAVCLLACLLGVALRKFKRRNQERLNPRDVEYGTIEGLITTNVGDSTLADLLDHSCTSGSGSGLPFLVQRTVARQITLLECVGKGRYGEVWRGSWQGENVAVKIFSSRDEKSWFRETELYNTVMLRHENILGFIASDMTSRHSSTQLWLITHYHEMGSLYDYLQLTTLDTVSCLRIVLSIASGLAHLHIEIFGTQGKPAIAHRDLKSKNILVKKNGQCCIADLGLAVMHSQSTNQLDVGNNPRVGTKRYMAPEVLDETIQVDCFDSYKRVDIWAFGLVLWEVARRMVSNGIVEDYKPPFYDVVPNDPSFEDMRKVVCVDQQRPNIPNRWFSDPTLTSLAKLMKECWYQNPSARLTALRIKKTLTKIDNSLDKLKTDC
T1 sequence (O75676 whole entry): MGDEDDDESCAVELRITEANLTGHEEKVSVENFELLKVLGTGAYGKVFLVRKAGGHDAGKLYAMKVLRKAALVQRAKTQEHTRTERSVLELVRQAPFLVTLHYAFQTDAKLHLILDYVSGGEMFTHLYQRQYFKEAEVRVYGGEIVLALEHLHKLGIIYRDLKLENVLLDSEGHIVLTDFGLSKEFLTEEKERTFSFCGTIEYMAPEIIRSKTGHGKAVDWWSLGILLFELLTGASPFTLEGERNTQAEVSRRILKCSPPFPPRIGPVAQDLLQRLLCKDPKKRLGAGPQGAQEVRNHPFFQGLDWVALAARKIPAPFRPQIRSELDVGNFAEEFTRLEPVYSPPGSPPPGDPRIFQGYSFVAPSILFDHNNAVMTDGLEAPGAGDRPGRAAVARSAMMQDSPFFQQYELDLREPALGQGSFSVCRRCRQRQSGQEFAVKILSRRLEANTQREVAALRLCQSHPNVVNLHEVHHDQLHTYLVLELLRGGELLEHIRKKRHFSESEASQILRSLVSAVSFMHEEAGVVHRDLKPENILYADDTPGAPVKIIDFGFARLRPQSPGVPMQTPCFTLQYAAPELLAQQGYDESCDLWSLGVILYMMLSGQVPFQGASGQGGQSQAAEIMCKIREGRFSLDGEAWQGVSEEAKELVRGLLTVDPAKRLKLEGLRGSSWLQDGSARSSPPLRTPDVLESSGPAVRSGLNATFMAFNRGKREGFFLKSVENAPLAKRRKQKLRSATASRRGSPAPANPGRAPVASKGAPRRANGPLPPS
T4 sequence (P36507 whole entry): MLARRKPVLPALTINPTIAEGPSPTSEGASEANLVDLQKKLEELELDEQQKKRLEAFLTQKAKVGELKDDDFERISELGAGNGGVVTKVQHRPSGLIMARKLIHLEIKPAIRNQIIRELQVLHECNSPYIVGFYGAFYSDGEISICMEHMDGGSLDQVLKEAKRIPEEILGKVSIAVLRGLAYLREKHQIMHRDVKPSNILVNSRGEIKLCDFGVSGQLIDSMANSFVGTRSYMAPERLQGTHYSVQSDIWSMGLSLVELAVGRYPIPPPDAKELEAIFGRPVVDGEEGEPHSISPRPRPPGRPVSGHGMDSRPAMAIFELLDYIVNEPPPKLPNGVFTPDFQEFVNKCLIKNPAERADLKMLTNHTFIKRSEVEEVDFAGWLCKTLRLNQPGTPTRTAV
Chain of MAP4K3 (Q8IVH8 whole entry): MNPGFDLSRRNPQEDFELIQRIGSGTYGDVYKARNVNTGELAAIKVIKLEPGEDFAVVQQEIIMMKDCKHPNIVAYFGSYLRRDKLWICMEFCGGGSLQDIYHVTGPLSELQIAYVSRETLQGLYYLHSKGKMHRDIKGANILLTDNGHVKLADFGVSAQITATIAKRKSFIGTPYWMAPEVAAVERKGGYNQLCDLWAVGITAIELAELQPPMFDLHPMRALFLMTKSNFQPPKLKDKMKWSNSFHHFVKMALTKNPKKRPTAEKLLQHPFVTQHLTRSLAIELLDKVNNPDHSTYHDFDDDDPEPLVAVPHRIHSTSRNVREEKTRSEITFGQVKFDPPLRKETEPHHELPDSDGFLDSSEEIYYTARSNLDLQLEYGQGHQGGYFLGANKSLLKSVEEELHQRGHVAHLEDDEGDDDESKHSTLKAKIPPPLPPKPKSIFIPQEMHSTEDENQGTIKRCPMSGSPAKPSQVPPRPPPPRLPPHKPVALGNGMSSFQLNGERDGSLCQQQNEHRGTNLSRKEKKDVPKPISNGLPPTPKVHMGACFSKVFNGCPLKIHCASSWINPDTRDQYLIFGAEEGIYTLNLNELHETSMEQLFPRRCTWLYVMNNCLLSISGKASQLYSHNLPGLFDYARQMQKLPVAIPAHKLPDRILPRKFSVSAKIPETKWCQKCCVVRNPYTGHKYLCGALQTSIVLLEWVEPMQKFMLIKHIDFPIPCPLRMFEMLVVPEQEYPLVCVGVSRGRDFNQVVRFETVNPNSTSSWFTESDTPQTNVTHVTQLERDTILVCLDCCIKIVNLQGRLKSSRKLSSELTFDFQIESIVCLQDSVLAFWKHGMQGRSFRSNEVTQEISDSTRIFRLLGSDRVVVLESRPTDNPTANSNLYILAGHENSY
Chain of DMPK (Q09013 whole entry): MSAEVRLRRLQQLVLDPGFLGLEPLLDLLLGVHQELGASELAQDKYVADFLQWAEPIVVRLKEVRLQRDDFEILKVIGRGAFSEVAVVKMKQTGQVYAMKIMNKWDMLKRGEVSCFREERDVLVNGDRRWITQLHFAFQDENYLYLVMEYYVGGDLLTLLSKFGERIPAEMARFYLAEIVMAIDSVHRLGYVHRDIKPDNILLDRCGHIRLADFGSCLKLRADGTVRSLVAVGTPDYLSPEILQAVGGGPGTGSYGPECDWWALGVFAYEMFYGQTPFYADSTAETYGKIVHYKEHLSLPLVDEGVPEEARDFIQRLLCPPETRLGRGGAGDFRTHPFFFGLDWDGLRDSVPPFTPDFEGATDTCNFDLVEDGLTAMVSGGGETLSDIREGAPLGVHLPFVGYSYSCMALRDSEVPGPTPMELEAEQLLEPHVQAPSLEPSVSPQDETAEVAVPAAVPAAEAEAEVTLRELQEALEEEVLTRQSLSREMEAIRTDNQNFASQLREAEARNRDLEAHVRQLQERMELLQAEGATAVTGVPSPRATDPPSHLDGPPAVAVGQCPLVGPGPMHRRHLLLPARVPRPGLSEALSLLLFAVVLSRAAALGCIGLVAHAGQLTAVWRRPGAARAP

**Q.** How did the remaining binding at 1 µM (DMPK) turn out when `Cc1ccc(NC(=O)c2cccc(C(F)(F)F)c2)cc1Nc1cc(-c2cccnc2)nc2[nH]ccc12` [HZX-02-059] was run?
**A.** 81%

**Q.** What about the remaining binding at 1 µM [1] of the same compound?
**A.** 93%

**Q.** And the remaining binding at 1 µM (BLK)?
**A.** 91%

**Q.** And the remaining binding at 1 µM (IKK-beta)?
**A.** 100%

**Q.** And the remaining binding at 1 µM (AURKA)?
**A.** 100%

**Q.** And the remaining binding at 1 µM (p38-beta)?
**A.** 64%

**Q.** And the remaining binding at 1 µM (MEK2)?
**A.** 100%

**Q.** What about the remaining binding at 1 µM (ACVR2A) of the same compound?
**A.** 75%

**Q.** What about the remaining binding at 1 µM (ACVR1) of the same compound?
**A.** 77%

**Q.** And the remaining binding at 1 µM (MARK3)?
**A.** 92%

**Q.** What about the remaining binding at 1 µM (PIK3CA(C420R)) of the same compound?
**A.** 100%

**Q.** What about the remaining binding at 1 µM (CDK2) of the same compound?
**A.** 96%

**Q.** What about the remaining binding at 1 µM (MAP4K3) of the same compound?
**A.** 97%

**Q.** And the remaining binding at 1 µM (PRKCI)?
**A.** 71%

**Q.** What about the remaining binding at 1 µM (EGFR(L858R)) of the same compound?
**A.** 87%

**Q.** And the remaining binding at 1 µM (PIK3CB)?
**A.** 74%

**Q.** And the remaining binding at 1 µM (LRRK2(G2019S))?
**A.** 92%

**Q.** What about the remaining binding at 1 µM (PYK2) of the same compound?
**A.** 100%

**Q.** What about the remaining binding at 1 µM (JNK2) of the same compound?
**A.** 99%

**Q.** And the remaining binding at 1 µM (KIT(L576P))?
**A.** 0.3%

**Q.** And the remaining binding at 1 µM (DCAMKL1)?
**A.** 93%

**Q.** And the remaining binding at 1 µM (EGFR(S752-I759del))?
**A.** 100%

**Q.** What about the remaining binding at 1 µM (LOK) of the same compound?
**A.** 47%

**Q.** What about the remaining binding at 1 µM (FGFR3) of the same compound?
**A.** 86%

Reference: paper PMC8799717, “Pharmacological targeting PIKfyve and tubulin as an effective treatment strategy for double-hit lymphoma” (Cell Death Discovery, 2022)
